Measurements from patent US11147272B2, “Pyridone compounds and agricultural and horticultural fungicides comprising the same as active ingredients” (MITSUI CHEMICALS AGRO, INC., priority 2017, dated 2021).

Experiments:
[1] = system: Blumeria graminis f. sp. hordei; test: Test Example D: Powdery mildew on barley; conditions: for Test D control value class: class of control value
Plasmopara viticola = test: Test Example G: Downy mildew on vine; conditions: for Test G control value: 7 to 10 days after inoculation; for Test G control value class: Downy mildew on vine (Neomuscat), 2.5 ml/pot, assessed 7 to 10 days after inoculation
[2] = system: Colletotrichum orbiculare; test: Test Example H: Anthracnose on cucumber; conditions: for Test H control value: 6 to 10 days after inoculation; for Test H control value class: Anthracnose on cucumber (Sagami Hanjiro), 2.5 ml/pot, assessed 6 to 10 days after inoculation
Phytophthora infestans = test: whole plant or invertebrate; format: in vivo; conditions: for Test F control value class: class of control value
Botrytis cinerea = test: Test Example B: Gray mold on tomato; conditions: for Test B control value class: class of control value
Puccinia recondita = test: Test Example E: Brown rust on wheat; format: in vivo
Alternaia brassicicola = test: Test Example C: Alternaria sooty spot on cabbage; format: in vivo
Source text: Seeds of a test plant (cabbage variety: Shikidori) were planted and cultivated until the cotyledons extended.
<Control Value> Control value=100{1−(n/3)}

Magnaporthe grisea = test: whole plant or invertebrate; format: in vivo; conditions: for Test A control value class: class of control value
[3] = 250 ppm drug solution sprayed on test plant
[4] = 250 ppm drug solution sprayed (2.5 ml/pot), grape Neomuscat
[5] = 250 ppm drug solution sprayed (2.5 ml/pot), cucumber Sagami Hanjiro
[6] = Brown rust on wheat, class of control value
[7] = Alternaria sooty spot on cabbage, class of control value
[8] = Powdery mildew on barley, control value class
[9] = Downy mildew on vine, 250 ppm spray
[10] = Anthracnose on cucumber, 250 ppm spray
[11] = Late blight on tomato, control value class
[12] = Gray mold on tomato, control value class
[13] = Brown rust on wheat, control value class
[14] = Alternaria sooty spot on cabbage, control value class
[15] = Blast on rice, control value class

| SMILES | Test D control value [1, 3] | Test G control value (Plasmopara viticola; [4]) | Test H control value [2, 5] | Test F control value (Phytophthora infestans; [3]) | Test B control value (Botrytis cinerea; [3]) | Test E control value (Puccinia recondita; [3]) | Test C control value (Alternaia brassicicola; [3]) | Test A control value (Magnaporthe grisea; [3]) | Test D control value class ([1]; Powdery mildew on barley) | Test G control value class (Plasmopara viticola; 250 ppm spray) | Test H control value class ([2]; 250 ppm spray) | Test F control value class (Phytophthora infestans; Late blight on tomato) | Test B control value class (Botrytis cinerea; Gray mold on tomato) | Test E control value class (Puccinia recondita; [6]) | Test C control value class (Alternaia brassicicola; [7]) | Test A control value class (Magnaporthe grisea; Blast on rice) | Test D control value [1, 8] | Test G control value (Plasmopara viticola; [9]) | Test H control value [2, 10] | Test F control value (Phytophthora infestans; [11]) | further results |
| --- | --- | --- | --- | --- | --- | --- | --- | --- | --- | --- | --- | --- | --- | --- | --- | --- | --- | --- | --- | --- | --- |
| CCn1c(-c2c(F)cccc2F)c(C(Br)Br)cc(Cl)c1=O [Compound No. 21, 3-chloro-5-(dibromomethyl)-6-(2,6-difluorophenyl)-1-ethylpyridin-2(1H)-one] | – | – | – | – | – | – | – | – | – | – | – | – | – | – | – | – | – | – | – | – | pest or weed control at 250 µg/mL ([1]; Blumeria graminis, in Hordeum vulgare, topical, read-out: Test D control value class): > 50%; pest or weed control at 250 ppm (Plasmopara viticola; Plasmopara viticola, topical, read-out: Test G control value class): > 50%; pest or weed control at 250 ppm ([2]; Colletotrichum orbiculare, in Cucumis sativus, topical, read-out: Test H control value class): < 50%; pest or weed control at 250 µg/mL (Phytophthora infestans; Phytophthora infestans, in Solanum lycopersicum, topical, read-out: Test F control value class): < 50%; pest or weed control at 250 µg/mL (Botrytis cinerea; Botrytis cinerea, in Solanum lycopersicum, topical, read-out: Test B control value class): > 50%; pest or weed control at 250 µg/mL (Puccinia recondita; Puccinia recondita, topical, Brown rust on wheat, class of control value, read-out: Test E control value class): > 50%; pest or weed control at 250 µg/mL (Alternaia brassicicola; Brassica oleracea, topical, Alternaria sooty spot on cabbage, class of control value, read-out: Test C control value class): < 50%; pest or weed control at 250 µg/mL (Magnaporthe grisea; Pyricularia oryzae, in Oryza sativa, read-out: Test A control value class): < 50% |
| CCCc1ccc(=O)n(CC(F)F)c1-c1c(F)cc(OC)cc1F [compound 474] | H (more than 50% control value) | H (more than 50% control value) | H (more than 50% control value) | L (50% or less control value) | H (more than 50% control value) | H (more than 50% control value) | H (more than 50% control value) | H (more than 50% control value) | – | – | – | – | – | – | – | – | – | – | – | – | – |
| CCCc1cc(I)c(=O)n(CC)c1-c1c(F)cc(F)cc1F [compound 434] | H (more than 50% control value) | L (50% or less control value) | H (more than 50% control value) | L (50% or less control value) | H (more than 50% control value) | H (more than 50% control value) | H (more than 50% control value) | H (more than 50% control value) | – | – | – | – | – | – | – | – | – | – | – | – | – |
| CCn1c(-c2c(F)cc(F)cc2F)c(CN(C)C)cc(Cl)c1=O [compound 91] | – | – | – | – | – | – | – | – | L (50% or less control value) | L (50% or less control value) | H (more than 50% control value) | L (50% or less control value) | L (50% or less control value) | H (more than 50% control value) | L (50% or less control value) | L (50% or less control value) | – | – | – | – | – |
| CCc1cc(F)ccc1-c1c(CC(C)C)cc(Cl)c(=O)n1CC [compound 263] | – | – | – | – | – | – | – | – | – | – | – | – | – | – | – | – | H (more than 50% control value) | H (more than 50% control value) | H (more than 50% control value) | L (50% or less control value) | Test B control value (Botrytis cinerea; [12]): H (more than 50% control value); Test E control value (Puccinia recondita; [13]): H (more than 50% control value); Test C control value (Alternaia brassicicola; [14]): H (more than 50% control value); Test A control value (Magnaporthe grisea; [15]): H (more than 50% control value) |
| CCn1c(-c2c(F)cc(F)cc2F)c(CN(OC)C(=O)OC)cc(Cl)c1=O [compound 133] | – | – | – | – | – | – | – | – | H (more than 50% control value) | H (more than 50% control value) | H (more than 50% control value) | L (50% or less control value) | H (more than 50% control value) | H (more than 50% control value) | H (more than 50% control value) | H (more than 50% control value) | – | – | – | – | – |
| C#CCOc1cc(F)c(-c2c(CCC)cc(Cl)c(=O)n2CC)c(F)c1 [compound 463] | H (more than 50% control value) | H (more than 50% control value) | H (more than 50% control value) | L (50% or less control value) | H (more than 50% control value) | H (more than 50% control value) | H (more than 50% control value) | H (more than 50% control value) | – | – | – | – | – | – | – | – | – | – | – | – | – |
| CCC(C)C1=C(c2c(F)cc(OC)cc2F)N(CC)C(=O)C(Br)C1 (centres unmarked) [compound 36] | – | – | – | – | – | – | – | – | H (more than 50% control value) | H (more than 50% control value) | H (more than 50% control value) | L (50% or less control value) | H (more than 50% control value) | H (more than 50% control value) | H (more than 50% control value) | H (more than 50% control value) | – | – | – | – | – |
| COc1cc(F)c(-c2c(C(C)C)ccc(=O)n2C)c(F)c1 [compound 14] | – | – | – | – | – | – | – | – | H (more than 50% control value) | L (50% or less control value) | H (more than 50% control value) | H (more than 50% control value) | H (more than 50% control value) | H (more than 50% control value) | H (more than 50% control value) | H (more than 50% control value) | – | – | – | – | – |
| C#CC(O)c1cc(Cl)c(=O)n(CC)c1-c1c(F)cc(F)cc1F (centres unmarked) [compound 283] | – | – | – | – | – | – | – | – | – | – | – | – | – | – | – | – | L (50% or less control value) | L (50% or less control value) | H (more than 50% control value) | L (50% or less control value) | Test B control value (Botrytis cinerea; [12]): H (more than 50% control value); Test E control value (Puccinia recondita; [13]): H (more than 50% control value); Test C control value (Alternaia brassicicola; [14]): H (more than 50% control value); Test A control value (Magnaporthe grisea; [15]): L (50% or less control value) |
| CCn1c(-c2ccc(C)cc2F)c(CC(C)C)cc(Br)c1=O [compound 147] | – | – | – | – | – | – | – | – | H (more than 50% control value) | H (more than 50% control value) | L (50% or less control value) | L (50% or less control value) | H (more than 50% control value) | H (more than 50% control value) | H (more than 50% control value) | H (more than 50% control value) | – | – | – | – | – |
| CCCCc1ccc(=O)n(CC)c1-c1ccc(F)cc1Cl [compound 208] | – | – | – | – | – | – | – | – | – | – | – | – | – | – | – | – | H (more than 50% control value) | L (50% or less control value) | L (50% or less control value) | L (50% or less control value) | Test B control value (Botrytis cinerea; [12]): H (more than 50% control value); Test E control value (Puccinia recondita; [13]): H (more than 50% control value); Test C control value (Alternaia brassicicola; [14]): H (more than 50% control value); Test A control value (Magnaporthe grisea; [15]): H (more than 50% control value) |
| CCCc1ccc(=O)n(CCC)c1-c1c(F)cc(OC)cc1F [compound 442] | H (more than 50% control value) | H (more than 50% control value) | H (more than 50% control value) | L (50% or less control value) | L (50% or less control value) | H (more than 50% control value) | L (50% or less control value) | H (more than 50% control value) | – | – | – | – | – | – | – | – | – | – | – | – | – |
| CCn1c(-c2c(F)cc(F)cc2F)c(C(OC(C)=O)C2CC2)cc(Cl)c1=O (centres unmarked) [compound 259] | – | – | – | – | – | – | – | – | – | – | – | – | – | – | – | – | H (more than 50% control value) | H (more than 50% control value) | H (more than 50% control value) | L (50% or less control value) | Test B control value (Botrytis cinerea; [12]): H (more than 50% control value); Test E control value (Puccinia recondita; [13]): H (more than 50% control value); Test C control value (Alternaia brassicicola; [14]): H (more than 50% control value); Test A control value (Magnaporthe grisea; [15]): H (more than 50% control value) |
| CCn1c(-c2ccc(F)cc2Cl)c(CC=O)cc(Cl)c1=O [compound 298] | – | – | – | – | – | – | – | – | – | – | – | – | – | – | – | – | L (50% or less control value) | L (50% or less control value) | H (more than 50% control value) | L (50% or less control value) | Test B control value (Botrytis cinerea; [12]): L (50% or less control value); Test E control value (Puccinia recondita; [13]): L (50% or less control value); Test C control value (Alternaia brassicicola; [14]): H (more than 50% control value); Test A control value (Magnaporthe grisea; [15]): L (50% or less control value) |
| CCn1c(-c2c(F)cccc2F)c(C=O)ccc1=O [compound 510] | L (50% or less control value) | L (50% or less control value) | L (50% or less control value) | L (50% or less control value) | L (50% or less control value) | L (50% or less control value) | L (50% or less control value) | H (more than 50% control value) | – | – | – | – | – | – | – | – | – | – | – | – | – |
